In PMC11960442, “In vitro activities of lipopeptides against fluconazole-resistant Candida auris” (Microbiology Spectrum, 2025):
In brackets after ≈: the same amount, converted by molar mass. Like-named read-outs stand apart in the source and are kept apart here. Non-standard residues stand in square brackets, D forms with d. Residues, ends and D or L forms follow the SMILES beside them. *: point of attachment. Myristoyl = CCCCCCCCCCCCCC(=O)*; Nle = CCCC[C@H](N)C(=O)O

Columns and labels:
[1] = tested on: fluconazole-resistant C. auris isolates; experiment: microbe, parasite or virus in culture; details: Candidozyma auris, EUCAST broth microdilution, RPMI 1640 with 2% glucose
[2] = tested on: C. auris; experiment: Stability of compounds: MIC after pre-incubation of the peptides; format: cell-based, Candida auris; details: peptides previously incubated for 24 and 48 hours at 37°C; no changes in MIC values
Experimental: Determination of MICs. […] The media used for this assay was RPMI 1640 with 2% of glucose and the concentration of antifungal and peptides tested ranged from 128 to 0.25 mg/l.
Stability of compounds The peptides were incubated at 37°C for 24 and 48 hours. They were then used to perform MIC determination as previously described.

[3] = tested on: C. auris isolates 728157, CAB-1, CAB-2; experiment: Growth curves (OD450 nm every hour for 24 h); format: cell-based, Candida auris; details: for growth: growth curve 24 h
Experimental: Growth Curves. The action of the peptides was assessed by growth curve measuring OD450 nm every hour for 24 h using peptides at different concentrations (0.5X, 1X, 2X MIC). […] Untreated isolates were used as control. All experiments were replicated at least three times.

[4] = tested on: fluconazole-resistant C. auris isolates; details: for MIC: EUCAST broth microdilution, RPMI 1640 with 2% glucose; for MIC values: the six C. auris isolates
[5] = tested on: C. auris isolates 728157, CAB-1, CAB-2; experiment: Time-kill experiments (CFU counts), peptides combined with fluconazole; format: cell-based, Candida auris; details: for interaction with fluconazole in time-kill: fluconazole 128 mg/L with 0.5X and 1X MIC of peptide, interpreted by White et al.; for log difference compared to single administration, time-kill: C. auris CAB-1
[6] = isolate 728157 (clade I, ERG11 K143R)
[7] = isolate CAB-1 (clade I, ERG11 Y132F)
[8] = isolate CAB-5 (clade I, ERG11 Y132F)
[9] = C. auris 728157, all the concentrations (0.5X, 1X, 2X MIC)
[10] = C. auris 728157, peptide at 0.5X MIC
[11] = C. auris 728157, peptide at 1X and 2X MIC
[12] = C. auris CAB-1, peptide at 1X and 2X MIC
[13] = C. auris CAB-2, peptide at 1X MIC
[14] = C. auris CAB-2, peptide at 2X MIC
[15] = isolate CAB-2 (clade I, ERG11 Y132F)
[16] = isolate CAB-3 (clade I, ERG11 Y132F)
[17] = isolate CAB-4 (clade I, ERG11 Y132F)
[18] = fluconazole combined with 0.5X MIC of peptide, after 12 hours
[19] = C. auris CAB-2, fluconazole combined with 0.5X MIC of peptide, after 12 hours

Row | Compound | MIC [1, 6] [µg/mL] | MIC [1, 7] [µg/mL] | MIC [1, 8] [µg/mL] | MIC after pre-incubation of the peptide (stability) [2] [µg/mL] | hours of treatment after which P <0.05 compared to control (growth curve) [3, 9] [h] | delay of the start of growth compared to the control [3, 10] [h] | growth [3, 11] | growth [3, 12] | delay of the start of growth compared to the control [3, 13] [h] | growth [3, 14] | MIC [4, 6] [µg/mL] | MIC [4, 7] [µg/mL] | MIC [4, 15] [µg/mL] | MIC [4, 16] [µg/mL] | MIC [4, 17] [µg/mL] | MIC [4, 8] [µg/mL] | MIC values [4] [µg/mL] | MIC values ([4]; 8 mg/L expressed in µM) [µM] | interaction with fluconazole in time-kill ([5]; C. auris 728157) | log difference compared to single administration, time-kill [5, 18] [log] | also measured
1 | OC(Cn1cncn1)(Cn1cncn1)c1ccc(F)cc1F [FLU, fluconazole] | > 128 | 64 (≈ 209 µM) | 64 (≈ 209 µM) |  |  |  |  |  |  |  |  |  |  |  |  |  |  |  |  |  | 
2 | CCCCCCCCCCCCCC(=O)N[C@@H](CCCC)C(=O)N[C@@H](CCCNC(=N)N)C(=O)N[C@@H](CCCNC(=N)N)C(N)=O [NeI, C14-NleRR-NH2] (Myristoyl-[Nle]-Arg-Arg-NH2) |  |  |  | 8 | 8 | 16 | completely inhibited | completely inhibited | 14 | completely inhibited | 8 (≈ 12.3 µM) | 8 (≈ 12.3 µM) | 8 (≈ 12.3 µM) | 8 (≈ 12.3 µM) | 8 (≈ 12.3 µM) | 8 (≈ 12.3 µM) | 8 | 9 | synergistic effect | 2.19 | hours of treatment after which P <0.05 compared to control (growth curve) ([3]; C. auris CAB-1, 1X and 2X MIC concentrations): 8 h; hours of treatment after which P <0.05 compared to control (growth curve) ([3]; C. auris CAB-2, 1X and 2X MIC concentrations): 7 h; log difference, time-kill ([5]; C. auris 728157, fluconazole (128 mg/L) in combination with 0.5X and 1X MIC of peptide, at 32 hours): 3.10 log; log difference, time-kill ([5]; C. auris 728157, fluconazole (128 mg/L) in combination with 0.5X and 1X MIC of peptide, at 48 hours): 3.53 log; log difference, time-kill [5, 19]: 1.19 log
3 | anidulafungin [reference compound] |  |  |  |  |  |  |  |  |  |  | 0.25 | 0.5 | 0.25 | 0.25 | 0.25 | 0.25 |  |  |  |  | 
4 | CCCCCCCCCCCCCC(=O)N[C@@H](Cc1c[nH]c2ccccc12)C(=O)N[C@@H](CCCNC(=N)N)C(=O)N[C@@H](CCCNC(=N)N)C(N)=O [WR, C14-WRR-NH2] (Myristoyl-Trp-Arg-Arg-NH2) |  |  |  | 8 | 9 | 22 | completely inhibited | completely inhibited | 16 | completely inhibited | 8 (≈ 11 µM) | 8 (≈ 11 µM) | 8 (≈ 11 µM) | 8 (≈ 11 µM) | 8 (≈ 11 µM) | 8 (≈ 11 µM) | 8 | 8.4 | additive effect | 2.96 | hours of treatment after which P <0.05 compared to control (growth curve) ([3]; C. auris CAB-1, all the concentrations (0.5X, 1X, 2X MIC)): 9 h; hours of treatment after which P <0.05 compared to control (growth curve) ([3]; C. auris CAB-2, all the concentrations (0.5X, 1X, 2X MIC)): 8 h; growth after 24 hours compared to the control ([3]; peptide at 0.5X MIC, ANOVA, P <0.05): statistically significant reduction of growth; log difference, time-kill [5, 19]: 1.69 log
5 | C[C@@H]1[C@H](O)[C@@H](C)/C=C/C=C/C=C/C=C/C=C/C=C/C=C/[C@H](O[C@@H]2O[C@H](C)[C@@H](O)[C@H](N)[C@@H]2O)C[C@@H]2O[C@](O)(C[C@@H](O)C[C@@H](O)[C@H](O)CC[C@@H](O)C[C@@H](O)CC(=O)O[C@H]1C)C[C@H](O)[C@H]2C(=O)O [AMB, amphotericin] | 0.5 (≈ 0.541 µM) | 1 (≈ 1.08 µM) | 1 (≈ 1.08 µM) |  |  |  |  |  |  |  |  |  |  |  |  |  |  |  |  |  | MIC [1, 15]: 1 µg/mL (≈ 1.08 µM); MIC [1, 16]: 1 µg/mL (≈ 1.08 µM); MIC [1, 17]: 1 µg/mL (≈ 1.08 µM)
